Measured values taken from paper PMC10108821, “Three tyrosine kinase inhibitors cause cardiotoxicity by inducing endoplasmic reticulum stress and inflammation in cardiomyocytes” (BMC Medicine, 2023).

Columns and labels:
patients = conditions: ref Table S1, 2, 4, 26–36; cited from earlier work
ER stress genes in NRCMs = assay: qRT-PCR of ER stress genes in NRCMs; type: cell-based, rat
Method: Rats were euthanized by decapitation and thoracic cavity was opened with scissors and hearts were popped out of the opening gently with fingers. Hearts were clipped and put in HBSS immediately; 20–40 hearts were collected into one sterile vial containing a magnetic stir bar and 1 mL digestive media made of 0.1% trypsin (Macklin) and 0.05% collagenase (Gibco) in HBSS. Hearts were minced until they were uniform in size. Digestive media was added to 10 mL for 40 hearts and stirred gently for 6 min. Supernatant was discarded and the digestion was repeated once; 10 mL digestive media was added and stirred gently for 10 min. The supernatant with cells were collected and the digestion and collection were repeated 4 times. Cells were centrifuged at 1200 rpm for 5 min, resuspended in media (Dulbecco’s modified Eagleʼs medium (Gibco)) with 10% fetal bovine serum (FBS; VISTECH), 1% penicillin–streptomycin, and 1% 0.1 M 5-bromo-2-deoxyuridine solution (Shanghai Yuanye) and filtered through a 40-μm cell strainer. Cells were seeded on a 100-mm plastic dish and cultured in a 5% CO2 incubator at 37 °C for 2 h to allow non-myocytes to adhere to the plate. The dish was swirled and media gently pipetted up and down to detach lightly attached cardiomyocytes. […] All drug treatments were performed after this media change.
RNA was isolated based on a standard protocol using TRIzol reagent (Vazyme). TRIzol (1ml per 1 well of a 6-well plate) was used to lyse cells and chloroform was added for RNA separation. Samples were shaked vigorously by hand for 15 seconds and incubated at room temperature for 2-3 minutes. RNA was present in the aqueous phase after centrifuge at 12000 x g for 15 minutes. Isopropyl alcohol was mixed to precipitate RNA from the aqueous phase. […] 1 μg total RNA was used for cDNA synthesis using a reverse transcription kit (Bioman). We then measured expression of genes of interest with SYBRR Green qPCR Mix (Bioman) using Applied Biosystems 7500 Quantitative PCR Instrument. Gene expression was normalized to the 18S ribosomal RNA expression and primers were listed in Primers Table.

[1] = in vivo; cited from earlier work
[2] = test system: Phospho-eIF2α, XBP1s, ATF6 (cleaved); assay: Western blot of ER stress effectors in NRCMs; type: cell-based, rat
Cor.4U hiPSC-CMs [3] = assay: 3'DGE-UMI RNAseq transcriptome of hiPSC-CMs; conditions: high PC1 loadings; ponatinib at high dose
NRCMs [4] = assay: Calcium staining with Calbryte 520 AM; type: cell-based, rat; conditions: 0.5 and 1 h; 10 µM afatinib, 10 µM sorafenib, 5.62 µM ponatinib
Cor.4U hiPSC-CMs [5] = assay: ATP level (CellTiter-Glo) in hiPSC-CMs; type: cell-based, human
Method: ATP content was measured using the CellTiter-Glo Luminescent Cell Viability Assay (Promega) following the manufacturer’s protocol. After adding CellTiter-Glo reagents and incubation, luminescence was quantified using a Synergy H1 plate reader (BioTek Instruments). ATP standards were prepared from 0.01 to 5 μM. For each drug, we fitted a four-parameter log-logistic model to calculate ED50 at day 5 (Fig S1). To rank the cellular toxicity of the eight TKIs (Fig 1T), we calculated (EC50-Cmax)/(EC50+Cmax) and arranged from the smallest to the biggest for increasing cellular toxicity.

NRCMs [6] = assay: Seahorse assay: oxygen consumption and extracellular acidification; type: cell-based, rat; conditions: 24 h; fixed doses: 10 µM, crizotinib and ponatinib 3.16 µM
Method: Rats were euthanized by decapitation and thoracic cavity was opened with scissors and hearts were popped out of the opening gently with fingers. Hearts were clipped and put in HBSS immediately; 20–40 hearts were collected into one sterile vial containing a magnetic stir bar and 1 mL digestive media made of 0.1% trypsin (Macklin) and 0.05% collagenase (Gibco) in HBSS. Hearts were minced until they were uniform in size. Digestive media was added to 10 mL for 40 hearts and stirred gently for 6 min. Supernatant was discarded and the digestion was repeated once; 10 mL digestive media was added and stirred gently for 10 min. The supernatant with cells were collected and the digestion and collection were repeated 4 times. Cells were centrifuged at 1200 rpm for 5 min, resuspended in media (Dulbecco’s modified Eagleʼs medium (Gibco)) with 10% fetal bovine serum (FBS; VISTECH), 1% penicillin–streptomycin, and 1% 0.1 M 5-bromo-2-deoxyuridine solution (Shanghai Yuanye) and filtered through a 40-μm cell strainer. Cells were seeded on a 100-mm plastic dish and cultured in a 5% CO2 incubator at 37 °C for 2 h to allow non-myocytes to adhere to the plate. The dish was swirled and media gently pipetted up and down to detach lightly attached cardiomyocytes. The collected myocytes were seeded in the same media described before; 48 h after plating, medium was exchanged to fresh DMEM (Gibco) with or without 2% FBS. All drug treatments were performed after this media change.
NRCMs were seeded evenly into the Seahorse XF96 cell culture plates (Agilent) and cultured in DMEM high glucose with 2% FBS. About 2 hours before the test, cells were moved to a non-CO2 incubator at 37 ° C and incubated for 1 hour. 1 hour prior to the test, culture media was replaced with the Seahorse Basal DMEM at 37°C (with appropriate concentration of glucose, 4mM L-glutamine, 1 mM sodium pyruvate and 1% penicillin-streptomycin solution) and incubated in a non-CO2 incubator at 37°C for 1 hour. Drugs were prepared at 8x to 10x concentrations with the corresponding seahorse media as in each well and added into ports of Seahorse XF96 cartridge plates which have been hydrated overnight. XFe96 Extracellular Flux Analyzer (Agilent) was used to measure oxygen consumption rate and extracellular acidification rate of cells with different drug treatments.

NRCMs [7] = assay: ROS by H2DCFDA staining and flow cytometry; conditions: 3 h; 10 µM afatinib, 10 µM sorafenib, 5.62 µM ponatinib
Method: (§1) For ROS assessment, cells were washed with PBS once and stained with 10μM H2DCFHDA (MCE) in phenol red-free DMEM (Procell) in a humid incubator with 5% CO2 at 37°C for 30 minutes. Cells were washed with PBS twice and dissociated to single cells before flow cytometry analysis at the FITC channel. For lipid peroxidation measurement, cells were washed with PBS once and stained with 2μM C11-bodipy^581/591 (Cayman) in phenol red-free DMEM (Procell) in a humid incubator with 5% CO2 at 37°C for 30 minutes. Cells were washed with PBS twice and dissociated to single cells before flow cytometry analysis at both the FITC and the PE channels. Fluorescence of the oxidized C11-bodipy were acquired through the FITC channel (Ex/Em=488/520nm) and that of the non-oxidized C11-bodipy through the PE channel (Ex/Em=555/624nm).

HELP hiPSC-CMs = assay: CardioExcyte 96 microelectrode array: base impedance and extracellular field potential; type: cell-based, human; conditions: fixed doses: 10 µM, crizotinib and ponatinib 3.16 µM; up to 24 h
Method: HELP hiPSC-CMs were seeded evenly into the 96-well microelectrode array, NSP-96 0.6mm sensor plate (Nanion technologies), at 50,000 cells per well. Measurements were started after 3-5 days of culture of these cells and until the impedance and the extracellular field potential are stable. Measurements were taken a few times before drug addition, and every 30~60 minutes after the drugs were added at 2x concentration. Values were averaged from 3 wells per group. Beat rate, amplitude of impedance, base impedance and FPDc were calculated by the Cardio Excyte Control 96 software package (Nanion Technologies).

NRCMs [8] = assay: Lipid peroxidation by C11-bodipy 581/591 and flow cytometry
Method: as §1

[9] = Sprague-Dawley, rat, 24 h, 10 µM

EC50 on cells relative to Cmax in vivo (Cor.4U hiPSC-CMs [5]): ~ 60 folds | increase in percent of ROS-high cells (NRCMs [7]): 14.1% | change in percent of cells with high lipid peroxidation (NRCMs [8]): increased slightly | level of lipid peroxidation, TKI alone (NRCMs [8]; [9]): 92.5% | level of lipid peroxidation, TKI with trolox (NRCMs [8]; [9]): 83%
SMILES: CN(C)C/C=C/C(=O)Nc1cc2c(Nc3ccc(F)c(Cl)c3)ncnc2cc1O[C@H]1CCOC1 [afatinib]
level of cardiotoxicity based on literature reports (patients): low cardiotoxicity | temporal activation of ER stress genes, 72 versus 24 h (ER stress genes in NRCMs; afatinib 5.62 µM, sorafenib 3.16 μM, ponatinib 1.78 μM): higher expression of Atf4, but a lower expression of Xbp1s and Atf6 at 72- than 24-h treatment | relative activation of the three UPR branches (ER stress genes in NRCMs; high-dose treatment, 24 h): activated the ATF4 axis more robustly than the XBP1s and the ATF6 axes | Cmax [1]: 50 nM | duration of activated eIF2α phosphorylation [2]: 12 h | expression of genes associated with ER stress (ATF4, NUPR1, DDIT3, TRIB3, CHAC1, SESN2, HERPUD1) (Cor.4U hiPSC-CMs [3]): upregulated | expression of genes related to cardiomyopathy and sarcomeric structure (MYH7, SYNPO2L, LDB3, ACTN2, MYLK3) (Cor.4U hiPSC-CMs [3]): downregulated | cytosolic calcium concentration (NRCMs [4]): did not cause any significant changes in calcium concentration | effect on ATP levels (Cor.4U hiPSC-CMs [5]; 0.32 to 10 µM, day 1 to day 5): dose-dependent and time-dependent reduction in ATP levels | dose-dependent toxicity (ATP fold changes) (Cor.4U hiPSC-CMs [5]; day 1, different doses, RNAseq conditions): dose-dependent toxicity | time-dependent toxicity (ATP fold changes) (Cor.4U hiPSC-CMs [5]; fixed dose over 5 days, RNAseq conditions): increasing toxicity with treatment duration | basal oxygen consumption rate (OCR) (NRCMs [6]): trend of inhibiting basal oxygen consumption rate (OCR) | effect on beat rate, contraction, base impedance and corrected field potential duration (HELP hiPSC-CMs): reduced beat rate and corrected field potential duration
